Assays:
[1] = system: SIV; conditions: general statement, no own test; cited from earlier work
[2] = CCl4-induced liver injury (cirrhosis with ascites) in rats: serum proteins, ascites, fibrosis markers; type: in vivo, rat; conditions: 4 weeks
[3] = Tuberculous pleural effusions and serum albumin in BCG-sensitized guinea pigs; type: in vivo; conditions: 5 mg/kg, 7 days
Source text: After sensitizing with BCG for 42 days, guinea pig was administrated with preparations for 7 days, sensitized for 2 days continuously, then measured the level of Pleural Effusion, number of white blood cell and content of serum albumin

[4] = system: H37Rv Tubercle Bacillus; assay: Anti-tubercle bacillus assay in vivo, total lung bacterial count; conditions: infected C57BL/6 mice, 25 mg/kg
Description: Anti-tubercle bacillus assay is tested in vivo. C57BL/6 mice infected with H37Rv Tubercle Bacillus are divided into 6 groups (n=15), one is normal control group, another is positive control group (INH: 25 mg/kg), in other groups, preparations was added into mice's feed, animals are administrated consecutive 16 weeks.
Experimental staff Killed 5 mice at the 2nd, 4th, 16th week, obtained lung and spleen, put them into 1 ml 7H9 media, grinded and converted them into 1.5 ml Ep tube, doublely diluted 10 times with 7H9 media, then Plated different dilutions onto 7H11 solid media plates for 4w at 37° C., counted tuberculosis colonys.
Calculation Formula: (initial number of clone×final broth volume×dilution factor 10^3×2×10)+(initial number of clone colony×final broth volume×dilution factor 10^4×2×10)+(initial number of clone colony×final broth volume×dilution factor 10^5×2×10)/3
Take tissue for pathological examination, weight lung, Calculation Formula: (initial number of clone×final broth volume×dilution factor 10^3×2×10)+(initial number of clone colony×final broth volume×dilution factor 10^4×2×10)+(initial number of clone colony×final broth volume×dilution factor 10^5×2×10)/3×initial organ weight/organ weight in treatment.
Count number of Lung bacterial or mouse spleen CFU of every mouse in each group, convert data in accordance with 1 g (CFU).

[5] = system: H-resistant (Isoniazid) tubercle bacillus; type: cell-based; conditions: serum of mice dosed 25 mg/kg, 10% serum
[6] = system: R-resistant (Rifampicin) tubercle bacillus; type: cell-based; conditions: serum of mice dosed 25 mg/kg, 10% serum
[7] = system: HR-resistant (Isoniazid and Rifampicin) tubercle bacillus; type: cell-based; conditions: serum of mice dosed 25 mg/kg, 10% serum
[8] = system: HRSE-resistant (Isoniazid, Rifampicin, Streptomycin, Ethambutol-resistant) tubercle bacillus; type: cell-based; conditions: serum of mice dosed 25 mg/kg, 10% serum
[9] = Serum albumin in rats with intra-abdominal infection; type: in vivo; conditions: 30 mg/kg
Source text: The mice are divided into 6 groups (n=10), i.e., Normal control group, Negative control group, Positive control group (Panaxoside), in the remaining 3 groups, rats were fed with preparation 1 through intragastric administration for 6 days. Under anesthesia by diethyl ether, abdominal cavity of mice were cut open, experimental staff stick a puncture on appendices with needle to cause it infected, then sew up abdominal wound. Continue administration after surgery, animals were executed for collecting their blood to measure serum albumin levels, results are listed in Table 7.

[10] = CCl4 rats with ascites, 0.23 mg/kg intragastrically

In the case of `Cc1cn([C@H]2C[C@H](N=[N+]=[N-])[C@@H](CO)O2)c(=O)[nH]c1=O` [AZT, Zidovudine], the “inhibition of infection by SIV” value [1] is listed as “could not inhibited infection”.

`COc1cc2c(c(OC)c1OC)-c1ccc(OC)c(=O)cc1[C@@H](NC(C)=O)CC2` [Colchicine, colchicine] showed an ALB [2, 10] of 38.1 ± 5.6 g/L, an ALB/GLB [2, 10] of 2.8 ± 1.6 and a GLB [2, 10] of 17.1 ± 7.7 g/L. For the same molecule, the “Incidence (ascites)” value ([2]; CCl4 rats, 0.23 mg/kg) was 50%, the “Animal with ascites n” value ([2]; CCl4 rats, 0.23 mg/kg, of 10 animals) was 5 and the HPRO ([2]; CCl4 rats, liver, 0.23 mg/kg) was 0.29 ± 0.08 mg/g (Liver Weight).

For `C[C@@H]1C[C@H]2[C@@H]3CCC4=CC(=O)C=C[C@]4(C)[C@@]3(F)[C@@H](O)C[C@]2(C)[C@@]1(O)C(=O)CO` [Dexamethasone], the ALB [3] was 29.05 ± 3.49 g/L, the Exudates volumes [3] was 1.2 ± 0.44 mL and the WBC [3] was 19.1 ± 5.24 ×109.

For `NNC(=O)c1ccncc1` [INH, Isoniazid], the “Total Lung bacterical count, Mean lg (CFU ± SEM)” value ([4]; 2 w) was 6.12 ± 0.22 lg (CFU), the “Total Lung bacterical count, Mean lg (CFU ± SEM)” value ([4]; 4 w) was 5.59 ± 0.20 lg (CFU) and the “Total Lung bacterical count, Mean lg (CFU ± SEM)” value ([4]; 16 w) was 2.77 ± 0.16 lg (CFU). The “Inhibition rate of serum, H-resistance” value [5] was 0%, the “Inhibition rate of serum, R-resistance” value [6] was 72% and the “Inhibition rate of serum, HR-resistance” value [7] was 67%. For the same molecule, the “Inhibition rate of serum, HRSE-resistance” value [8] was 21%.

In the case of Panaxoside, the ALB [9] is reported as 29.64 ± 2.29 g/L.

— patent US8202555B2, “Natural pharmaceutical preparations for increasing albumin” (priority 2009, dated 2012)
